According to patent US12582642B2, “Composition for treating, improving, and/or preventing progression of bovine papillomatosis caused by bovine papillomavirus” (KinoPharma, Inc., priority 2020, dated 2026):
Values joined by “and” are separate entries in the source; they are usually repeats but may differ in a detail not shown here. Identical values can stand only once. “Also recorded” adds a separate entry of the source.

Key:
[1] = tested on: bovine papilloma (wart) caused by BPV in front teats; assay: Therapeutic effect confirmation test performed on dairy cow having papilloma; assay type: in vivo, cow (female dairy cows)
[2] = tested on: bovine papilloma (wart) caused by BPV in front teats; assay: as above; assay type: in vivo, cow (female dairy cows); design: key to Determination (pharmaceutical effect for each individual cow): Effective: Test section>Control section; Ineffective: Test section≤Control section
Text: To female dairy cows (four), each having papillomas in both of front teats, an ointment agent containing Compound A was applied once a day to a papilloma (wart) of one of the front teats (test section). A dressing tape (Navis, PROSHARE Dressing Role, No. 8-5965-01) was applied around the teat after the application of the ointment agent to prevent external contamination. The ointment agent was applied over a surface of the teat at about 0.01 g to about 0.2 g (equivalent to the active ingredient of about 0.3 mg to about 6 mg) per 1 cm^2 of the surface area. The application (treatment) of 5-day administration with 2-day rest was continued for 4 weeks. The diseased part was imaged once a week. Pharmaceutical effects were evaluated based on a state of the diseased part (wart) four weeks after the start of the application.
Changes (size reduction/disappearance, no change, and growth/occurrence) of warts after four-week administration were evaluated with the following three-level evaluation scores. No change” includes the suppression of growth and being non-effective. “Occurrence” means that a new wart was generated during the four-week administration.
Size reduction/disappearance=+1, no change=0, and growth/occurrence=−1.
Further, scores were added for each individual cow, and pharmaceutical effects for each individual cow were determined based on the following criteria. • Effective: Test section>Control section • Ineffective: Test section≤Control section
When only small warts were targeted, the growth or size reduction of warts noticeably appear, which is considered to make it easier to determine the effects of Compound A. In view of this, only warts having a size of less than 5 mm before the application of an ointment agent were selected from the test sections and the control sections in the above-described confirmation test, and the ratio of warts that had smaller sizes or disappeared was calculated.

[3] = total of cows 01-04, ointment 3% by weight, 4 weeks

SMILES: Fc1ccc(N2CCCCC2)c(NC(=S)c2ccncc2)c1 [Compound A, N-[5-fluoro-2-(1-piperidinyl)phenyl]-4-pyridinethioamide]
- Warts that disappeared among the additional reduced warts in the test section ([1]; administration continued for a further four weeks after the four-week administration): two
- Additional warts with reduced size in the test section ([1]; administration continued under the same conditions for a further four weeks after the four-week administration): four
- Ratio of warts that had smaller sizes or disappeared ([2]; Evaluation Method 2: only warts of less than 5 mm before application, 14 warts in the test sections, control sections 0%): 28.6%
- Overall judgement of the ointment agent containing Compound A ([2]; based on the total scores and on the individual cow evaluations, 4 weeks): considered effective
- Cases (cows) determined effective out of four cases ([2]; four cows, 4 weeks, ointment 3% by weight): Effective in three
- State of diseased part in a test section (FIG. 2 images) ([2]; from before the start of administration to after the end of administration): warts disappeared
- Test section Growth/Occurrence (evaluation score) ([2]; per individual cow, ointment (Compound A: 3% by weight) applied once a day to teat wart, 4 weeks, growth/occurrence=−1 per wart): 0 (3×) and −6
- Test section Size reduction/Disappearance (evaluation score) ([2]; per individual cow, ointment (Compound A: 3% by weight, white petrolatum) applied once a day to teat wart, 5-day administration with 2-day rest, 4 weeks, size reduction/disappearance=+1 per wart): +1 (2×) and +3 and +2
- Determination (pharmaceutical effect for each individual cow) ([2]; per individual cow, test section score versus control section (ointment base) score, 4 weeks): Ineffective; also recorded: Effective
- Effectiveness score Test section ([2]; scores added for each individual cow, ointment 3% by weight, 4 weeks): +1 (2×) and −3 and +2
- Test section Growth/Occurrence, Total of four cows [2, 3]: −6
- Test section Size reduction/Disappearance, Total of four cows [2, 3]: +7
- Effectiveness score Test section, Total ([2]; total of four cows, control sections total −8, 4 weeks): +1
